Common to all, as to assay: biochemical
Common to all, as to assay type: binding

The target in assay [1] is T1, RASA1(SH2dom.C-term.) (Homo sapiens, UniProt P20936).
T1 construct: SH2dom.C-term. denotes SH2 domain closest to C-terminus of protein; made in house; host or cells: HEK293 (transient transfection, unpurified extract)
T1 sequence (P20936 351-441 limits assumed): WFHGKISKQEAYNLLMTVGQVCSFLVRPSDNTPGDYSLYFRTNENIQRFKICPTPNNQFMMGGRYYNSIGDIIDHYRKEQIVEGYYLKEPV

Assay [2] has as its target T2, PTPN6(SH2dom.C-term.) (Homo sapiens, UniProt P29350).
T2 construct: SH2dom.C-term. denotes SH2 domain closest to C-terminus of protein; made in house; host or cells: HEK293 (transient transfection, unpurified extract)
T2 sequence (P29350 110-213 limits assumed): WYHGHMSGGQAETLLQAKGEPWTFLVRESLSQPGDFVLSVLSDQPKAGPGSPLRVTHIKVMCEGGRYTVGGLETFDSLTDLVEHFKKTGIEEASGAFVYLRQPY

The target in assay [3] is T3, DAPP1 (Homo sapiens, UniProt Q9UN19).
T3 construct: the DNA-tagged SH2 domain concentrations used in this study were <0.1 nM; made in house; host or cells: HEK293 (transient transfection; unpurified extract)
T3 sequence (Q9UN19 35-129 limits assumed): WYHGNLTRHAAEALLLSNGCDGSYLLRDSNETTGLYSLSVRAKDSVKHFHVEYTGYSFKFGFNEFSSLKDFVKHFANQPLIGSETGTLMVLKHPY

For assay [4], the target named is T4, SOCS4 (Homo sapiens, UniProt Q8WXH5).
T4 construct: made in house; host or cells: HEK293 (transient transfection), unpurified extract
T4 sequence (Q8WXH5 1-440): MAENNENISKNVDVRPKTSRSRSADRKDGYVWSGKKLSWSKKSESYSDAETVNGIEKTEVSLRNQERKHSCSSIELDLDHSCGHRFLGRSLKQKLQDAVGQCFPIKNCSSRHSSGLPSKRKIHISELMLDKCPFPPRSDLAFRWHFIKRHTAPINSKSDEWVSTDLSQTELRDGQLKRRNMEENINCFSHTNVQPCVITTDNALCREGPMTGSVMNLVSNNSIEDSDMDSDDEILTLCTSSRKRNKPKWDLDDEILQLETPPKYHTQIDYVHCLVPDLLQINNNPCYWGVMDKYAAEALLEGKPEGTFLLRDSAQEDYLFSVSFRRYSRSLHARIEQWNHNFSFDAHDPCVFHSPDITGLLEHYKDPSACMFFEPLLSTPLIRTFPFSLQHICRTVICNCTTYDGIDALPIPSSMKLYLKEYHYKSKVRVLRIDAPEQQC

The target in assay [5] is T5, CRKL (Homo sapiens, UniProt P46109).
T5 construct: the DNA-tagged SH2 domain concentrations used in this study were <0.1 nM; made in house; host or cells: HEK293 (transient transfection; unpurified extract)
T5 sequence (P46109 14-102 limits assumed): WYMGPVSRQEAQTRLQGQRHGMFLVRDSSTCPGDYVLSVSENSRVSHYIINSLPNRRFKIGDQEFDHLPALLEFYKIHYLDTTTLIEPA

Assay [6] deals with T6, PLCG1(SH2dom.C-term.) (Homo sapiens, UniProt P19174).
T6 construct: SH2dom.C-term. denotes SH2 domain closest to C-terminus of protein; made in house; host or cells: HEK293 (transient transfection, unpurified extract)
T6 sequence (P19174 668-756 limits assumed): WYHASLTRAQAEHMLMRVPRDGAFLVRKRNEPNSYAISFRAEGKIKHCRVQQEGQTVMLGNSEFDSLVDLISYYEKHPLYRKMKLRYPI

Assay [7] deals with T7, TXK (Homo sapiens, UniProt P42681).
T7 construct: made in house; host or cells: HEK293 (transient transfection), unpurified extract
T7 sequence (P42681 1-527): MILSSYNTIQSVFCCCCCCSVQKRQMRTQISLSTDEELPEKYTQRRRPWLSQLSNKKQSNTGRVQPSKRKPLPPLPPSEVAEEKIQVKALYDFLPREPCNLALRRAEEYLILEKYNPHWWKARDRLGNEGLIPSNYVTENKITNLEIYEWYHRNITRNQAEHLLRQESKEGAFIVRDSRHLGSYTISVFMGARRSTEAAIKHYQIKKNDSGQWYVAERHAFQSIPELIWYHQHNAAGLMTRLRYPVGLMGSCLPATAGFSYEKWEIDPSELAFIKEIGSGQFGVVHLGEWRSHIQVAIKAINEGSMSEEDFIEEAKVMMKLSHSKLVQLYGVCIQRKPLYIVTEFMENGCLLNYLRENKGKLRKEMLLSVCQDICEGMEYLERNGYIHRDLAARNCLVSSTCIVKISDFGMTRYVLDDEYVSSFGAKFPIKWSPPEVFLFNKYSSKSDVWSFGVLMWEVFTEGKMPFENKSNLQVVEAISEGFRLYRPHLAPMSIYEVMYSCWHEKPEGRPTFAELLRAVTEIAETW

The target of assay [8] is T8, VAV1 (Homo sapiens, UniProt P15498).
T8 construct: made in house; host or cells: HEK293 (transient transfection), unpurified extract
T8 sequence (P15498 1-845): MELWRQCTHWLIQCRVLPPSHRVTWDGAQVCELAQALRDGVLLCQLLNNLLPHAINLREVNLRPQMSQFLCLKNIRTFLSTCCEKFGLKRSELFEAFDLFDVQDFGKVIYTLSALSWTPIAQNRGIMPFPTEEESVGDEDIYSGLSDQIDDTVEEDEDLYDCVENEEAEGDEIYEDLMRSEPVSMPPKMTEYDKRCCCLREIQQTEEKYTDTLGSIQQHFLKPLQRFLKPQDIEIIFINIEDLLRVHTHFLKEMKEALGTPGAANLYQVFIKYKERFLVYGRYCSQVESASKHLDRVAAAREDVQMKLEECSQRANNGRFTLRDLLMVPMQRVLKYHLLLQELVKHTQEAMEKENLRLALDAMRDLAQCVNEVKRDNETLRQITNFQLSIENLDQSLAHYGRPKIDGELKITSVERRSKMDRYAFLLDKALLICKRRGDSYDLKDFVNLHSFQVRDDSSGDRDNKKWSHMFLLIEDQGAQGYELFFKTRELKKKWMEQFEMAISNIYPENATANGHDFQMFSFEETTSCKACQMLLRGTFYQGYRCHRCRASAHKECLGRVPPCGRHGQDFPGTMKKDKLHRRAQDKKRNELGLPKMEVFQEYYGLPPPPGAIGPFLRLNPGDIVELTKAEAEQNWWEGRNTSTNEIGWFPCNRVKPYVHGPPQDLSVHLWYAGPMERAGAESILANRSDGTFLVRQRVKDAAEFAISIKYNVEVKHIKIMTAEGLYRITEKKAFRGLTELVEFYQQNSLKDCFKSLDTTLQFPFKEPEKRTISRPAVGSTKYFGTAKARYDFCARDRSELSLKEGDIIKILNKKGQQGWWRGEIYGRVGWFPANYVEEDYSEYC

In assay [9] the target is T9, VAV2 (Homo sapiens, UniProt P52735).
T9 construct: made in house; host or cells: HEK293 (transient transfection), unpurified extract
T9 sequence (P52735 1-878): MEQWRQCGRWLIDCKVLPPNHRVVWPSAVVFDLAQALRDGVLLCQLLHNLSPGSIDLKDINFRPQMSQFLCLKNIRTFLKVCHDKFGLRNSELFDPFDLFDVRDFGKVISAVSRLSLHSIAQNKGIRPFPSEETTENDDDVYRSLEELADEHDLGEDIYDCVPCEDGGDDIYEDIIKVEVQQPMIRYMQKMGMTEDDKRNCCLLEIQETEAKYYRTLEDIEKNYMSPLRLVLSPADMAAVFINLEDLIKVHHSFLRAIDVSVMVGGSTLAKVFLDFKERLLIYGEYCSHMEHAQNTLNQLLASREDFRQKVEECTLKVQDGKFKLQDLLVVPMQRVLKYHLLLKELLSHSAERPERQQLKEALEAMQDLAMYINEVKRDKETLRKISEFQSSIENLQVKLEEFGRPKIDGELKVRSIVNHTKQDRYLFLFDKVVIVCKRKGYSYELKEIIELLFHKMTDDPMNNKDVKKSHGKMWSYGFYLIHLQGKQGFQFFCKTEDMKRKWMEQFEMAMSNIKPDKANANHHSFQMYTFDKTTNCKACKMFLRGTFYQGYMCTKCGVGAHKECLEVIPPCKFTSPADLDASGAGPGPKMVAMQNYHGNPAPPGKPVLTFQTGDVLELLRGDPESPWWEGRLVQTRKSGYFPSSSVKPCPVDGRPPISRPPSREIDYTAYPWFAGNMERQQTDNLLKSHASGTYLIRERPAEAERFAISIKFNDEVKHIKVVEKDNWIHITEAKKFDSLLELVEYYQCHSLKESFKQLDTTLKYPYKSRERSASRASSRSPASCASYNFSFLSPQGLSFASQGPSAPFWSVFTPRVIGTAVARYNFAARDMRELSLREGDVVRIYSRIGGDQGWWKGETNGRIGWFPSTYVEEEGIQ

For assay [10], the target named is T10, VAV3 (Homo sapiens, UniProt Q9UKW4).
T10 construct: made in house; host or cells: HEK293 (transient transfection), unpurified extract
T10 sequence (Q9UKW4 1-847): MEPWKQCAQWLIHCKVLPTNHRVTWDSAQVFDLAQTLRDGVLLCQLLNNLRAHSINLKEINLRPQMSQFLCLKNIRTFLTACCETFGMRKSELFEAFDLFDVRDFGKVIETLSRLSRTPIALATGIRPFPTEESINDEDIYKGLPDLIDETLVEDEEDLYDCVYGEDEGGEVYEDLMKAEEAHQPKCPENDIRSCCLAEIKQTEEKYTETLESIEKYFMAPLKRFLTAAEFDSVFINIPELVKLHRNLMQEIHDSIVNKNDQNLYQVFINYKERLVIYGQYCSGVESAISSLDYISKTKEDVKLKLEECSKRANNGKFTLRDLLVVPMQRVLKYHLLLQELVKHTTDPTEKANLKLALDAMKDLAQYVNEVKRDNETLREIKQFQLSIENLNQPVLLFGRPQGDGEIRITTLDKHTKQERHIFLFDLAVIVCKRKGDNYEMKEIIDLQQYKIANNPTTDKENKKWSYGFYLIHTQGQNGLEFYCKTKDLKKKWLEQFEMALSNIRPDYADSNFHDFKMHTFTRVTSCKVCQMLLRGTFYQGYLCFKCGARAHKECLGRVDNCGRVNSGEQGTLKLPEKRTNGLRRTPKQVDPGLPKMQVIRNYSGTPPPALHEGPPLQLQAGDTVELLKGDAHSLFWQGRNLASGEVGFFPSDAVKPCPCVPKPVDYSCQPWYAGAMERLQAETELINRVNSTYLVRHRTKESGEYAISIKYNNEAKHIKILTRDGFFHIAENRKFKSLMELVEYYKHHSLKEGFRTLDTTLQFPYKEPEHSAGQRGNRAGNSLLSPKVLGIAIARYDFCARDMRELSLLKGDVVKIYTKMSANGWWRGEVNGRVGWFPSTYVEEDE

Non-standard residues stand in square brackets, D forms with d. Residues, ends and D or L forms follow the SMILES beside them. pY = N[C@@H](Cc1ccc(OP(=O)(O)O)cc1)C(=O)O

The term Kd denotes the constant that tells how readily two partners part at equilibrium. `CSCC[C@H](NC(=O)[C@@H]1CCCN1C(=O)[C@H](CCC(=O)O)NC(=O)[C@H](C)NC(=O)[C@H](Cc1ccc(OP(=O)(O)O)cc1)NC(=O)[C@H](CC(=O)O)NC(=O)[C@H](CO)NC(=O)[C@@H]1CCCN1C(=O)[C@H](CC(=O)O)NC(=O)[C@H](Cc1ccccc1)NC(=O)CNC(C)=O)C(=O)N[C@@H](CC(=O)O)C(=O)N[C@@H](C)C(=O)N[C@H](C(=O)N[C@H](C(N)=O)C(C)C)C(C)C` (Ac-GFDPSD[pY]AEPMDAVV-NH2) yielded a Kd in assay [1] of 0.00411 ± 0.00048 µM.
In the case of `CC[C@H](C)[C@H](NC(=O)[C@H](CCC(=O)O)NC(=O)[C@H](CCC(N)=O)NC(=O)[C@H](CCC(=O)O)NC(=O)[C@@H](NC(=O)[C@H](C)NC(C)=O)[C@@H](C)O)C(=O)N[C@H](C(=O)N[C@@H](Cc1ccc(OP(=O)(O)O)cc1)C(=O)N[C@@H](C)C(=O)N[C@@H](CCC(=O)O)C(=O)N[C@@H](CC(C)C)C(=O)N[C@@H](CC(N)=O)C(=O)N[C@@H](CC(C)C)C(=O)N[C@@H](CCC(N)=O)C(=O)N[C@@H](CCCCN)C(N)=O)[C@@H](C)O` (Ac-ATEQEIT[pY]AELNLQK-NH2), the dissociation constant (Kd) in assay [2] amounted to 1.49 ± 0.666 µM.
Regarding `CC(=O)N[C@@H](CC(C)C)C(=O)N[C@@H](CC(C)C)C(=O)N1CCC[C@H]1C(=O)N[C@@H](CC(C)C)C(=O)N[C@@H](CC(=O)O)C(=O)N[C@@H](CCCCN)C(=O)N[C@@H](CC(=O)O)C(=O)N[C@@H](Cc1ccc(OP(=O)(O)O)cc1)C(=O)N[C@@H](Cc1ccc(OP(=O)(O)O)cc1)C(=O)N[C@H](C(=O)N[C@H](C(=O)N[C@@H](CCCNC(=N)N)C(=O)N[C@@H](CCC(=O)O)C(=O)N1CCC[C@H]1C(=O)NCC(=O)N[C@@H](CCC(N)=O)C(N)=O)C(C)C)C(C)C`, the figures for the equilibrium dissociation constant (Kd) in assay [3] and in assay [4] were 41.3 ± 5.96 µM and 0.00191 ± 0.0005 µM, respectively.
Consider `CC(=O)N[C@@H](CCC(=O)O)C(=O)N1CCC[C@H]1C(=O)NCC(=O)N1CCC[C@H]1C(=O)N[C@@H](Cc1ccc(OP(=O)(O)O)cc1)C(=O)N[C@@H](C)C(=O)N[C@@H](CCC(N)=O)C(=O)N1CCC[C@H]1C(=O)N[C@@H](CO)C(=O)N[C@H](C(=O)N[C@@H](CC(N)=O)C(=O)N[C@H](C(N)=O)[C@@H](C)O)C(C)C` (Ac-EPGP[pY]AQPSVNT-NH2), for which, in [5], binding was characterised by a dissociation constant (Kd) of 1.2 ± 0.309 µM.
As to `CC(=O)N[C@@H](CC(=O)O)C(=O)N[C@H](C(=O)N[C@@H](CCC(=O)O)C(=O)N[C@H](C(=O)N[C@@H](Cc1ccc(OP(=O)(O)O)cc1)C(=O)N[C@@H](CCC(=O)O)C(=O)N[C@@H](CO)C(=O)N1CCC[C@H]1C(=O)N[C@@H](Cc1ccc(OP(=O)(O)O)cc1)C(=O)N[C@@H](C)C(=O)N[C@@H](CC(=O)O)C(=O)N1CCC[C@H]1C(=O)N[C@@H](CCC(=O)O)C(N)=O)C(C)C)[C@@H](C)O` [Ac-DTEVpYESPpYADPE-NH2] (Ac-DTEV[pY]ESP[pY]ADPE-NH2), the equilibrium dissociation constant (Kd) in assay [6] was determined as 2.91 ± 2.74 µM; in assay [7], 4.12 ± 0.637 µM; in assay [8] it was 1.4 ± 0.193 µM; in assay [9], 0.0951 ± 0.0199 µM; in assay [10], 0.163 ± 0.0482 µM.

Values taken from article PMC12951562, “SH2scan: Mapping SH2 Domain-Ligand Binding Selectivity for Inhibitors and Degraders” (Journal of Medicinal Chemistry, 2026).
